# Assay results as given in patent US4346094A, “3-Aryl-5-isothiazolecarboxylic acids and related compounds used to lower uric acid levels” (Eli Lilly and Company, priority 1980, dated 1982).
# Where two headings read alike, the source gives them in different places.
# Experiments:
# [1] = oral acute toxicity in mice (LD50); conditions: mouse, in vivo; for LD50: oral, mice, read-out: LD50 (dose which kills one-half of the animals); for therapeutic index (LD50/ED50): oral LD50 mice / oral ED50 rats, read-out: Ratio of LD50 to ED50
# From the text: The compounds represented by the above formula are also relatively non-toxic. In column 3 of Table V are listed the oral LD50 for mice in mg. per kg. for each of the compounds of column 1 (dose which kills one-half of the animals). Finally, column 4 in Table V gives the ratio of LD50 to ED50. It will be seen that the ratio of the LD50 to the ED50 is quite high, giving a substantial margin of safety for using the compounds of this invention in treating gout in mammals, particularly humans.
# xanthine oxidase = target: T1, xanthine oxidase (Bos taurus, UniProt P80457); assay: in vitro xanthine oxidase assay (rate of uric acid formation from xanthine); format: biochemical
# T1 construct: purchased Sigma Chemical Company, St. Louis, Mo; host or cells: milk (grade III, chromatographically purified)
# T1 sequence (P80457 whole entry): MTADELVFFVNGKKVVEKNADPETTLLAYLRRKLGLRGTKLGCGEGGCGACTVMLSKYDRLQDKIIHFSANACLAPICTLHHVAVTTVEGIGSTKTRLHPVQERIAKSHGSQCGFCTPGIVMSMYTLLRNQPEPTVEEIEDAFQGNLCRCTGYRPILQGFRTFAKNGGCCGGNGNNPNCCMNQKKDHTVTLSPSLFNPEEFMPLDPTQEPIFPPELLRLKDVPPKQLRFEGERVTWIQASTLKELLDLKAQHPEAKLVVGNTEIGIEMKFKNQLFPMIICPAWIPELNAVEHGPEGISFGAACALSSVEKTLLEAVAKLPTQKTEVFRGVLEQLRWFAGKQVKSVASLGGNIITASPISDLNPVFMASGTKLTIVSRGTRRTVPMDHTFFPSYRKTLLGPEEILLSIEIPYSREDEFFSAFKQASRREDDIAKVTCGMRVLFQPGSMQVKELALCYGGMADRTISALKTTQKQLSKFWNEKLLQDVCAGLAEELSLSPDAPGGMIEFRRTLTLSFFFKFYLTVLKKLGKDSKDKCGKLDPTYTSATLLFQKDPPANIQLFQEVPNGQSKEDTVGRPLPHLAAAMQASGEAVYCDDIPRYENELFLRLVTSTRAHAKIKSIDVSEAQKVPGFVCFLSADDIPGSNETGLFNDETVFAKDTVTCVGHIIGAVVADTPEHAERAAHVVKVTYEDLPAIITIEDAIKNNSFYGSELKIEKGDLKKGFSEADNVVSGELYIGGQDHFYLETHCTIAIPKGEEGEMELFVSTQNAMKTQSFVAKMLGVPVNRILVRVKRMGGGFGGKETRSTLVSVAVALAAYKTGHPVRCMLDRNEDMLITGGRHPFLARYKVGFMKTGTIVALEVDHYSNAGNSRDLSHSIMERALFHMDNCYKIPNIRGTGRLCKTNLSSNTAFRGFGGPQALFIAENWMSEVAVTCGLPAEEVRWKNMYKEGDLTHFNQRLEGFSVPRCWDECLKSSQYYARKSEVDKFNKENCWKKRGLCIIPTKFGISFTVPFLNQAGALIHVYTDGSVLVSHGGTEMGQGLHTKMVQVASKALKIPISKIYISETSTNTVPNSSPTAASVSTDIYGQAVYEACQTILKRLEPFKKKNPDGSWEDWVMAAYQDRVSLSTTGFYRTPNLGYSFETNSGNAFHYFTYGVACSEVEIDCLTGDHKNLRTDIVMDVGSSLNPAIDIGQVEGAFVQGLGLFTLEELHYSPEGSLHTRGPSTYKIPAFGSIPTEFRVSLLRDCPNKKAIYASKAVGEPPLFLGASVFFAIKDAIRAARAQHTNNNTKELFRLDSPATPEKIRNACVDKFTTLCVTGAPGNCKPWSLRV
# Description: Since uric acid is produced by the oxidation of, first, hypoxanthine to xanthine and, second, of xanthine to uric acid via the enzyme, xanthine oxidase, an inhibitor of xanthine oxidase in vivo would obviously decrease the uric acid concentrations in the blood.
# Xanthine oxidase activity was measured at room temperature by the rate of uric acid formation from xanthine substrate. In a total volume of 1 ml., the incubation mixture contained 50 micromoles of potassium phosphate buffer at pH 7.4, 0.05 micromoles of xanthine and 0.01 units of enzyme preparation (chromatographically purified milk xanthine oxidase, grade III, obtained from Sigma Chemical Company, St. Louis, Mo.). The absorbence change at 292 nm was recorded by a Gilford recording spectrophotometer and the uric acid formed was calculated using an extinction coefficient of 12 mM^-1 Cm^-1 at 292 nm.
# plasma uric acid = assay: in vivo lowering of plasma uric acid in rats, oral (ED50); conditions: Rattus norvegicus, read-out: ED50 (dose which reduces plasma level of uric acid by one-half)
# Description: (§1) All of the compounds corresponding to formula I above which applicants have prepared are active in vivo in lowering plasma uric acid levels. […] The first method, the spectrofluorometric method, was modified from the procedure of Sumi et al., Clinica. Chimica. Acta., 73, 233 (1976). Rats were sacrificed by decapitation and their blood collected into vacutainer tubes containing heparin via heparinized glass funnels. The blood was centrifuged for 8 minutes at 4000 rpm after which time the plasma was separated and diluted 1:1 with water. Plasma protein was precipitated by addition of acetic acid to a final concentration of 0.007 molar and boiling the resulting mixture for 5 minutes in Sorval tubes. Clear deproteinized plasma was obtained after centrifugation of the resulting plasma for 30 minutes at 25,000 rpm. Uric acid was assayed as follows: 0.2 ml. aliquots of the clear deproteinized plasma were mixed with 120λ of uricase (0.045 mu/ml.) and incubated for 30 minutes at 27° C. 1.0 ml. of a p-hydroxyphenylacetic acid buffer was added. Samples obtained from feeding rats or dogs serial doses of the compound under test were incubated with the above buffer solution for 30 minutes at 27° C. Fluorescence of the solution was measured in quartz tubes using an Aminco Bowman-Spectrofluorimeter having excitation of 321 nm and emission at 412 nm. Five uric acid standards from 6-30 micromolar were assayed for each test and each standard yielded a linear curve.
# The second method was called the HPLC-EC Detection method. Here, blood plasma was collected from rats as described above and from dogs in heparinized syringes from the cefalic vein in the forearm and centrifuged with Sure-Sep to separate plasma. Deproteninized plasma was prepared in each instance by first diluting one volume of plasma with one volume of an internal standard solution, 4 mcg./ml., and then addition of two volumes of 5% trichloroacetic acid. Standards were added to control plasma in the range of 0-8 mcg./ml. of uric acid. Samples obtained by feeding graded doses of drug under test to dogs or rats were mixed for 30 seconds and then centrifuged in an Eppendorf microcentrifuge. Supernates were diluted 1:10 in column buffer and assayed for uric acid. Internal standards used were 3-methyluric acid for the rat samples and 3,9-dimethyluric acid for dog samples. Assays were performed as follows using a Bioanalytic Systems Inc. LC-44 analyser and an electrochemical detector system based on an Altex model 110 pump coupled with a CP-O carbon paste electrodetector. Samples for assay were put into a DuPont 834 autosampler and automatically injected into a laboratory packed stainless steel column (4.1 mm id, 1/4" od 25 cm.1) containing reverse phase packing (sperisorb. O.D. 5μ Regis Chemical Co.). The column buffers employed were 0.1 M disodium phosphate, 0.05 M citric acid and 10% methanol for rat samples; 0.1 M disodium phosphate, 10% methanol and citric acid titrated at pH 6.5 for dog samples. The same internal standards were employed as before. Retention times for uric acid, 3-methyluric acid and 3,9-dimethyluric acid were established. Uric acid levels were then calculated from peak areas by computer analysis. Table V which follows gives the oral ED50 in rats for a group of the preferred compounds of this invention (those in which the 3-position of the isothiazole ring carries a 3-trifluoromethylphenyl group). […]
# [2] = oral administration of ester and amides, percent inhibition in vivo
# Description: as §1
# The second method was called the HPLC-EC Detection method. Here, blood plasma was collected from rats as described above and from dogs in heparinized syringes from the cefalic vein in the forearm and centrifuged with Sure-Sep to separate plasma. Deproteninized plasma was prepared in each instance by first diluting one volume of plasma with one volume of an internal standard solution, 4 mcg./ml., and then addition of two volumes of 5% trichloroacetic acid. Standards were added to control plasma in the range of 0-8 mcg./ml. of uric acid. […] Uric acid levels were then calculated from peak areas by computer analysis. […]
# [3] = milk xanthine oxidase 0.01 units, 0.05 micromoles xanthine in 1 ml, pH 7.4, room temperature, 292 nm, read-out: I50 (concentration of drug which inhibits 50% of the oxidation of xanthine to uric acid by the xanthine oxidase preparation) (converted)
IC50 (xanthine oxidase; [3]),Compound,LD50 [1],ED50 (plasma uric acid),therapeutic index (LD50/ED50) [1],also measured
2130 nM,"Nc1c(-c2ccccc2)nsc1C(=O)O [R=H, R^1=H, 3-phenyl-4-amino-5-isothiazolecarboxylic acid]",–,–,–,–
225 nM,"O=C(O)c1snc(-c2ccccc2)c1Cl [R=H, X=Cl, 3-phenyl-4-chloro-5-isothiazolecarboxylic acid]",–,–,–,–
2340 nM,"O=C(O)c1cc(-c2ccccc2)ns1 [R=H, X=H, 3-phenyl-5-isothiazolecarboxylic acid]",–,–,–,–
203 nM,"O=C(O)c1snc(-c2ccccc2)c1O [R=H, X=OH, 3-phenyl-4-hydroxy-5-isothiazolecarboxylic acid]",–,–,–,–

# Further lines, the compound ahead of its results:
Compound,IC50 (xanthine oxidase; [3]),LD50 [1],ED50 (plasma uric acid),therapeutic index (LD50/ED50) [1],also measured
"Nc1c(-c2cccc(C(F)(F)F)c2)nsc1C(=O)O [R=3-CF3, R^1=H, 3-(3-trifluoromethylphenyl)-4-amino-5-isothiazolecarboxylic acid]",76.3 nM,798 ± 66 mg/kg,17.5 mg/kg,–,–
"O=C(O)c1snc(-c2cccc(C(F)(F)F)c2)c1Br [R=3-CF3, X=Br, 3-(3-trifluoromethylphenyl)-4-bromo-5-isothiazolecarboxylic acid]",–,~260 mg/kg,5.2 mg/kg,~50,IC50 (xanthine oxidase): 51.1 nM
"O=C(O)c1snc(-c2cccc(C(F)(F)F)c2)c1Cl [R=3-CF3, X=Cl, 3-(3-trifluoromethylphenyl)-4-chloro-5-isothiazolecarboxylic acid]",–,138 ± 12 mg/kg,6.4 mg/kg,21.6,IC50 (xanthine oxidase): 32.5 nM
"O=C(O)c1cc(-c2cccc(C(F)(F)F)c2)ns1 [R=3-CF3, X=H, 3-(3-trifluoromethylphenyl)-5-isothiazolecarboxylic acid]",54.9 nM,201 ± 13 mg/kg,15 mg/kg,13.4,–
"O=C(O)c1snc(-c2cccc(C(F)(F)F)c2)c1O [R=3-CF3, X=OH, 3-(3-trifluoromethylphenyl)-4-hydroxy-5-isothiazolecarboxylic acid]",25.6 nM,727 ± 35 mg/kg,18 mg/kg,40,–
"NC(=O)c1snc(-c2cccc(C(F)(F)F)c2)c1N [R=NH2, 3-(3-trifluoromethylphenyl)-4-amino-5-isothiazolecarboxamide]",–,–,–,–,Percent Inhibition ([2]; oral dosage 50 mg.kg): 13%
"CNC(=O)c1snc(-c2cccc(C(F)(F)F)c2)c1N [R=NHCH3, N-methyl 3-(3-trifluoromethylphenyl)-4-amino-5-isothiazolecarboxamide]",–,–,–,–,Percent Inhibition ([2]; oral dosage 25 mg.kg): 32%
"COC(=O)c1snc(-c2cccc(C(F)(F)F)c2)c1N [R=OCH3, Methyl 3-(3-trifluoromethylphenyl)-4-amino-5-isothiazolecarboxylate]",–,–,–,–,Percent Inhibition ([2]; oral dosage 25 mg.kg): 64%
